ChEMBL document CHEMBL3872243, “Synthesis of new morpholine-connected pyrazolidine derivatives and their antimicrobial, antioxidant, and cytotoxic activities” (2017)
≈ marks a conversion by molar mass, not a printed value.

Assays:
Assay type in all cases: functional
[1] = Antioxidant activity assessed as ABTS radical scavenging activity at 100 ug/ml after 30 mins
[2] = Cytotoxicity against human HepG2 cells after 48 hrs by MTT assay; conditions: HepG2, 48 h
[3] = system: Escherichia coli; assay: Antibacterial activity against Escherichia coli after 24 hrs by two fold dilution method
[4] = system: Staphylococcus epidermidis; assay: Antibacterial activity against Staphylococcus epidermidis after 24 hrs by two fold dilution method
[5] = Antioxidant activity assessed as reduction in AAPH free radical-induced linoleic acid peroxidation activity measured at 100 ug/ml by UV spectroscopic analysis; design: scale not given: the % may be the effect or the level left
[6] = Antifungal activity against Microsporum audouinii after 24 hrs by two fold dilution method
[7] = system: Pseudomonas aeruginosa; assay: Antibacterial activity against Pseudomonas aeruginosa after 24 hrs by two fold dilution method
[8] = system: Aspergillus niger; assay: Antifungal activity against Aspergillus niger after 24 hrs by two fold dilution method
[9] = Antifungal activity against Cryptococcus neoformans after 24 hrs by two fold dilution method
[10] = system: Staphylococcus aureus; assay: Antibacterial activity against Staphylococcus aureus after 24 hrs by two fold dilution method
[11] = system: Klebsiella pneumoniae; assay: Antibacterial activity against Klebsiella pneumoniae after 24 hrs by two fold dilution method
[12] = system: Candida albicans; assay: Antifungal activity against Candida albicans after 24 hrs by two fold dilution method
[13] = Cytotoxicity against human HeLa cells after 48 hrs by MTT assay
[14] = Cytotoxicity against human MCF7 cells after 48 hrs by MTT assay; conditions: MCF7, 48 h

Row | Compound | Activity [1] | GI50 [2] | LC50 [2] | TGI [2] | MIC [3] | MIC [4] | Activity [5] | MIC [6] | MIC [7] | MIC [8] | MIC [9] | MIC [10] | MIC [11] | MIC [12] | GI50 [13] | LC50 [13] | TGI [13] | GI50 [14] | LC50 [14] | TGI [14]
1 | O=[N+]([O-])c1ccc(N2C(O)CC(c3ccccc3)N2C(c2ccco2)N2CCOCC2)c([N+](=O)[O-])c1 (stereo unspecified) | 20.7% | 41.4 µM | > 100 µM | 64.8 µM | 64 µg/mL (≈ 129 µM) | 16 µg/mL (≈ 32.3 µM) | 42.8% | 0.5 µg/mL (≈ 1.01 µM) | 64 µg/mL (≈ 129 µM) | 2 µg/mL (≈ 4.04 µM) | > 100 µg/mL | 20 µg/mL (≈ 40.4 µM) | 16 µg/mL (≈ 32.3 µM) | 16 µg/mL (≈ 32.3 µM) | 30.8 µM | 80.7 µM | 52.1 µM | 32.1 µM | 82 µM | 56.4 µM
2 | O=[N+]([O-])c1ccc(N2C(O)CC(c3ccccc3)N2C(c2ccccc2)N2CCOCC2)c([N+](=O)[O-])c1 (stereo unspecified) | 34.6% | 43.2 µM | > 100 µM | 78.3 µM | 8 µg/mL (≈ 15.8 µM) | – | 21.8% | – | – | > 100 µg/mL | – | – | > 100 µg/mL | > 100 µg/mL | – | > 100 µM | – | – | > 100 µM | –
3 | CN(C)c1ccc(C(N2CCOCC2)N2C(c3ccccc3)CC(O)N2c2ccc([N+](=O)[O-])cc2[N+](=O)[O-])cc1 (stereo unspecified) | 31% | 35.8 µM | > 100 µM | 62.3 µM | 8 µg/mL (≈ 14.6 µM) | 2 µg/mL (≈ 3.65 µM) | 29.6% | > 100 µg/mL | 64 µg/mL (≈ 117 µM) | > 100 µg/mL | > 100 µg/mL | > 100 µg/mL | 64 µg/mL (≈ 117 µM) | 2 µg/mL (≈ 3.65 µM) | 29.2 µM | > 100 µM | 57.9 µM | 13.9 µM | > 100 µM | 28.9 µM
4 | COc1ccc(C(N2CCOCC2)N2C(c3ccccc3)CC(O)N2c2ccc([N+](=O)[O-])cc2[N+](=O)[O-])cc1 (stereo unspecified) | 61.2% | – | > 100 µM | – | > 100 µg/mL | 8 µg/mL (≈ 14.9 µM) | 59.1% | 8 µg/mL (≈ 14.9 µM) | > 100 µg/mL | > 100 µg/mL | > 100 µg/mL | 4 µg/mL (≈ 7.47 µM) | > 100 µg/mL | > 100 µg/mL | 31.8 µM | > 100 µM | 63.2 µM | – | > 100 µM | –
5 | Clc1ccccc1C(c1ccccc1)(c1ccccc1)n1ccnc1 [CLOTRIMAZOLE] | – | – | – | – | – | – | – | 0.5 µg/mL (≈ 1.45 µM) | – | 2 µg/mL (≈ 5.8 µM) | 0.5 µg/mL (≈ 1.45 µM) | – | – | 1 µg/mL (≈ 2.9 µM) | – | – | – | – | – | –
6 | O=[N+]([O-])c1ccc(N2C(O)CC(c3ccccc3)N2C(c2ccccn2)N2CCOCC2)c([N+](=O)[O-])c1 (stereo unspecified) | 16.8% | 29.1 µM | 67.5 µM | 46.8 µM | > 100 µg/mL | > 100 µg/mL | 51.3% | > 100 µg/mL | 32 µg/mL (≈ 63.2 µM) | > 100 µg/mL | 8 µg/mL (≈ 15.8 µM) | 18 µg/mL (≈ 35.5 µM) | 4 µg/mL (≈ 7.9 µM) | 8 µg/mL (≈ 15.8 µM) | 21.6 µM | 87.4 µM | 54.7 µM | 18.6 µM | 52.3 µM | 41.8 µM
7 | O=[N+]([O-])c1ccc(N2C(O)CC(c3ccccc3)N2C(c2c[nH]c3ccccc23)N2CCOCC2)c([N+](=O)[O-])c1 (stereo unspecified) | 27.8% | 15.9 µM | 54.8 µM | 38.2 µM | > 100 µg/mL | > 100 µg/mL | 34.6% | 8 µg/mL (≈ 14.7 µM) | 8 µg/mL (≈ 14.7 µM) | 16 µg/mL (≈ 29.4 µM) | 64 µg/mL (≈ 118 µM) | 1 µg/mL (≈ 1.84 µM) | > 100 µg/mL | 32 µg/mL (≈ 58.8 µM) | 34.2 µM | > 100 µM | 72.1 µM | 24.4 µM | 76.3 µM | 59.3 µM
8 | O=[N+]([O-])c1ccc(N2C(O)CC(c3ccccc3)N2C(c2cncs2)N2CCOCC2)c([N+](=O)[O-])c1 (stereo unspecified) | 24.6% | 32 µM | 89.3 µM | 61.3 µM | 2 µg/mL (≈ 3.9 µM) | 32 µg/mL (≈ 62.4 µM) | 21.5% | 64 µg/mL (≈ 125 µM) | 64 µg/mL (≈ 125 µM) | 32 µg/mL (≈ 62.4 µM) | 32 µg/mL (≈ 62.4 µM) | > 100 µg/mL | > 100 µg/mL | 32 µg/mL (≈ 62.4 µM) | 37.9 µM | 78.9 µM | 51.9 µM | 34 µM | > 100 µM | 67.4 µM
